Measured values published in patent US20130011855A1, “Methods for Determining Aged Based Accumulation of Senescent Cells Using Senescense Specific DNA Damage Markers” (priority 2008, published 2013).

Assays:
ATM/ATR p (S/TQ) = assay: Relative immunofluorescent intensity of ATM/ATR p (S/TQ) foci in frozen liver sections; format: in vivo; details: single i.p. injection to juvenile mice, liver hepatocytes
Method: (§1) Eight to eleven-day-old F1 mice from C57BL/6, obtained from the National Institute of Aging, Aged Rodent Colonies (Bethesda, Md.), were injected intraperitoneally with AAT (Sigma-Aldrich; St. Louis, Mo.) at 2 mg/kg body weight in corn oil. […] Control gender-matched litter mates were injected with corn oil or PBS. […] Female C57BL/6 mice (4- and 22-month-old) were allowed to acclimate at least 1 week prior to usage. All procedures were done within the guidelines of the Animal Research Committee at the University of Illinois at Chicago and the “Principles of laboratory animal care” (NIH publication No. 86-23, revised 1985).
(§2) To detect DNA damage foci, frozen 5-micron liver sections were rapidly transferred to slides after sectioning, then immediately fixed in 2% paraformaldehyde PBS for 20 min, and then prepared following standard protocols. […] Foci-associated nuclei and total nuclei were counted using Image Pro Plus software (MediaCybernetics, Bethesda, Md.). Three to four mice were used for each time point and 300-500 nuclei were counted for each subject. Relative fluorescence intensity of foci in images was quantitated using the density measurement of the Image Pro Plus software with subtraction of local background levels. Four to seven mice were studied per time point with 8 to 18 53BP1/phospho ATM foci scored per mouse. […]

ATM p (S1987) = assay: Relative immunofluorescent intensity of phospho ATM foci in frozen liver sections; format: in vivo, mice; details: for Relative immunofluorescent intensity of foci for ATM p (S1987): single i.p. injection to juvenile mice, liver hepatocytes; for signal strength of phospho ATM in 53BP1/phospho ATM foci: by 7 weeks after exposure
Method: as §1
To detect DNA damage foci, frozen 5-micron liver sections were rapidly transferred to slides after sectioning, then immediately fixed in 2% paraformaldehyde PBS for 20 min, and then prepared following standard protocols. […] The specificity was verified by blockage with oligopeptides bearing the antigenic sequences. Antiphospho ATM (S1981) (Rockland Immunochemicals, Gilbertsville, Pa.; 1:800) was a mouse antibody. Anti-rabbit and anti-mouse secondary antibodies conjugated to Cy-3 were obtained from Jackson Immunoresearch (West Grove, Pa.). Prior to mouse primary antibody application, tissues were first blocked with 1% goat anti-mouse FAB (Jackson Immunoresearch) followed by incubation with 4% BSA. Slides were counterstained with 0.2 ug/ml 4′,6-diamidino-2-phenylindole (DAPI) for 2 min prior to mounting in mowiol (Calbiochem; San Diego, Calif.) with 2% 1,4-diazobicyclo[2,2,2]octane (Sigma-Aldrich). Fluorescent 400× images were typically collected immediately after the assay. Foci-associated nuclei and total nuclei were counted using Image Pro Plus software (MediaCybernetics, Bethesda, Md.). Three to four mice were used for each time point and 300-500 nuclei were counted for each subject. Relative fluorescence intensity of foci in images was quantitated using the density measurement of the Image Pro Plus software with subtraction of local background levels. Four to seven mice were studied per time point with 8 to 18 53BP1/phospho ATM foci scored per mouse. Minimally exposed images were used. The student's t-test was used for statistical comparisons for these and other experiments. For double labeling with anti-phospho ATM (S1981) and anti-53BP1 antibodies, sections were prepared as described above, first labeling with the anti-phospho-ATM (S1981) and Cy-3 secondary antibody as above, then incubated with 4% BSA, followed by anti-53BP1 and then by Alexa 488 conjugated goat anti-rabbit antibody (Invitrogen; Carlsbad, Calif.; 1:200). All secondary antibodies were pre-adsorbed to reduce cross-reactivity as verified by negative control experiments.

[1] = system: 53BP1/phospho ATM (S1981) foci in hepatocytes; assay: Hepatocytes positive for 53BP1/phospho ATM co-localized foci in liver sections; format: in vivo, mice
Method: as §1, §2

[2] = system: 53BP1 foci in hepatocytes; assay: 53BP1 foci immunolocalization in hepatocytes of frozen liver sections; format: in vivo, mice; details: by 2.5 days after exposure
Method: Eight to eleven-day-old F1 mice from C57BL/6, obtained from the National Institute of Aging, Aged Rodent Colonies (Bethesda, Md.), were injected intraperitoneally with AAT (Sigma-Aldrich; St. Louis, Mo.) at 2 mg/kg body weight in corn oil. […] Control gender-matched litter mates were injected with corn oil or PBS. […] All procedures were done within the guidelines of the Animal Research Committee at the University of Illinois at Chicago and the “Principles of laboratory animal care” (NIH publication No. 86-23, revised 1985).
To detect DNA damage foci, frozen 5-micron liver sections were rapidly transferred to slides after sectioning, then immediately fixed in 2% paraformaldehyde PBS for 20 min, and then prepared following standard protocols. […] The specificity was verified by blockage with oligopeptides bearing the antigenic sequences. […] Foci-associated nuclei and total nuclei were counted using Image Pro Plus software (MediaCybernetics, Bethesda, Md.). Three to four mice were used for each time point and 300-500 nuclei were counted for each subject. Relative fluorescence intensity of foci in images was quantitated using the density measurement of the Image Pro Plus software with subtraction of local background levels. Four to seven mice were studied per time point with 8 to 18 53BP1/phospho ATM foci scored per mouse. […]

phospho Chk2 (T68) = assay: Phospho Chk2 (T68) nuclear immunostaining of liver sections; format: in vivo, mice
Method: as §1, §2

p53 (S 15) = assay: Phospho p53 (S15) immunostaining of liver sections; format: in vivo, mice; details: baseline or near baseline levels by 3-7 weeks post exposure
Method: as §1, §2

primary hepatocytes [3] = assay: S phase index by [3H]thymidine labeling of hepatocytes isolated from exposed mice; format: cell-based; details: hepatocytes from juvenile mice exposed 3 weeks previously
Method: (§3) FIG. 5A Collagenase perfusion was used to isolate hepatocytes from juvenile mice exposed 3 weeks previously to AAT. Twenty-four hours prior to fixation, cells were incubated with [3H]thymidine to allow the quantitation of the S phase index after processing for autoradiography. Shown are the means plus the (standard deviations) S.D. *P<0.002 versus the controls. FIG. 5B Cells isolated as described above from mice exposed, or not exposed, to AAT were subjected to the SA-β-Gal assay after fixation. At least 100 cells were counted on each plate from 3 to 5 control mice and 5 to 6 AAT exposed mice depending on the time point. Shown are the means plus S.D. *P<0.05 versus the controls. FIG. 5C Shown is a representative bright field image of primary hepatocytes 3 days after culture. Arrows indicate the blue, peri-nuclear stained, SA β Gal-positive cells. To reduce background [3H]thymidine detection was not done in this experiment. The phase contrast image below allows better visualization of the cells, original magnification 100×. FIG. 5D Hepatocytes isolated from adult 4-month-old and 22-month-old were cultured and assayed for S phase index as described. Shown are means plus S.D. There is a lag in S phase entry in cells from these adult mice. *P<0.02 and **P<0.004. FIG. 5E Hepatocytes from young adult and aged adult mice were cultured as described and then subjected to the SA β Gal assay. […]

primary hepatocytes [4] = assay: SA β Gal assay on hepatocytes isolated from exposed mice; format: cell-based; details: hepatocytes from exposed mice in primary culture
Method: as §3, with “100×.” for “100×. FIG. 5D Hepatocytes isolated from adult 4-month-old and 22-month-old were cultured and assayed for S phase index as described. Shown are means plus S.D. There is a lag in S phase entry in cells from these adult mice. *P<0.02 and **P<0.004. FIG. 5E Hepatocytes from young adult and aged adult mice were cultured as described and then subjected to the SA β Gal assay.”
DNA damage repair proteins such as Chk2 that are active in DDR are not active during senesce. […] There was no enrichment of activated phospho p53 (S15) or Chk2 (T68), while phospho ATM (S1981) positive cells were detected but the foci were of low intensity (FIG. 3, Table 1, data not shown). […]

SMILES | Relative immunofluorescent intensity of foci for ATM/ATR p (S/TQ) (ATM/ATR p (S/TQ); 3 Wk post exposure) | Relative immunofluorescent intensity of foci for ATM/ATR p (S/TQ) (ATM/ATR p (S/TQ); 7 Wk post exposure) | Relative immunofluorescent intensity of foci for ATM p (S1987) (ATM p (S1987); 3 Wk post exposure) | Relative immunofluorescent intensity of foci for ATM p (S1987) (ATM p (S1987); 7 Wk post exposure) | signal strength of phospho ATM in 53BP1/phospho ATM foci (ATM p (S1987)) | nuclear foci containing both 53BP1 and phospho ATM ([1]; 1 and 3 weeks after genotoxin exposure) | cells with 53BP1/phospho ATM foci ([1]; 7 weeks after exposure, versus unexposed control mice) | 53BP1 foci in hepatocytes [2] | phospho Chk2 positive nuclei (phospho Chk2 (T68); 0.5 and 1 week after exposure) | activation of Chk2 (T68) over time (phospho Chk2 (T68); baseline or near baseline levels by 3-7 weeks post exposure) | activation of p53 (S 15) over time (p53 (S 15)) | S phase entry of isolated hepatocytes (primary hepatocytes [3]) | SA β Gal staining of isolated hepatocytes (primary hepatocytes [4])
Cc1cc(N=Nc2ccccc2C)ccc1N [AAT, aminoazotoluene] | 100 ± 20.0 | 50 ± 17.5^A | 100 ± 4.50 | 50 ± 9.80^D | significant decreases in the signal strength of phospho ATM | elevated levels of nuclear foci | still present at higher levels than in the unexposed control mice | Appearance of 53BP1 foci | high levels of nuclear staining | activated only transiently | activated only transiently | defective for S phase entry | positive for SA β Gal
CO[C@@]12[C@H](COC(N)=O)C3=C(C(=O)C(C)=C(N)C3=O)N1C[C@@H]1N[C@@H]12 [mitomycin C] |  |  |  |  | significant decreases in the signal strength of phospho ATM |  |  |  |  |  |  |  | 
